Our source for the IC50 values is US10894052B2, “Heterocyclic inhibitors of ATR kinase” (Board of Regents, The University of Texas System, priority 2018, dated 2021).

Experiment [1] has as its target ATR/ATRIP complex (Homo sapiens (Human), UniProt Q13535). The experiment in a line: ATR/ATRIP enzymatic assay (Caliper-based). The following applies: ATR/ATRIP enzyme; FAM-labeled RAD17 peptide, ATP. In kind it is biochemical. On the procedure: (§1) The ability of the compounds of Formula I to inhibit the catalytic activity of the ATR/ATRIP complex was measured in a Caliper-based assay, and in HT-29 cells in an Alphascreen assay, following the ATR-mediated phosphorylation of CHK1, described below.
Human full-length FLAG-TEV-ATR and His6-ATRIP were co-expressed in HEK293 cells. […] The sample was loaded into a column, and then washed with buffer A three times. Protein was subsequently eluted with 2 ml of buffer B (buffer A+200 μg/ml 3×FLAG peptide).
The ability of new chemical matter to inhibit the ATR catalytic activity in this ATR/ATRIP complex was assessed using a Caliper-based assay. A 2× enzyme solution (i.e., 4 nM enzyme) was prepared using 1× Kinase Reaction Buffer (25 mM HEPES pH 8, 0.0055% Brij-35, 10 mM MnCl2, and 1 mM DTT). […] 10 μL of the 2× enzyme solution was transferred to an assay plate containing 60 nL of test compound (from a 3× serial dilution) in 100% DMSO. Following a 30-min incubation at 28° C., 10 μL of the 2× peptide solution was then transferred to the same assay plate. The reaction incubated at 28° C. for 6 h. After adding 30 μL stop buffer (100 mM HEPES pH 7.5, 0.015% Brij-35, 0.2% Coating-3 Reagent (PerkinElmer, catalog #PN760050), and 50 mM EDTA), data were collected on a Caliper instrument. Conversion values were converted to inhibition values via the following equation: % inhibition=(max−conversion)/(max−min)*100, wherein “max” corresponds to the DMSO control, and “min” corresponds to the low control. IC50 values were calculated using the following equation in XLFit: Y=Bottom+(Top−Bottom)/1+(IC50/X)^HillSlope).

Experiment [2] concerns ATR-driven phosphorylation of Chk1 kinase at Serine 345 in HT-29 cells. The experiment in a line: pCHK1 cellular assay (CHK1 p-Ser345 AlphaScreen SureFire). It counts as cell-based. Conditions: Homo sapiens; HT-29 colorectal adenocarcinoma cells; 4-nitroquinoline N-oxide 12 μM; read-out: Cell IC50 (pCHK1). How it is done:
as §1
Cellular IC50 for the inhibitors of ATR described herein were measured in HT-29 colorectal adenocarcinoma cells.
The microplate was incubated overnight (approximately 20 hours) at 37° C. with 5% CO2 and ambient O2. Stock solutions of the test compounds were prepared in 100% DMSO (Sigma, Catalog #D2650) and serially diluted 1:3 using 100% DMSO. Compounds were additionally diluted 1:33 in culture medium, and 10 μL/well were transferred to the tissue culture plate. Following the compound addition, the microplate was incubated at 37° C. for 90 minutes. […] The cells were then washed with PBS and lysed using 10 μL/well […]® Kit lysis buffer diluted to 1× in water (PerkinElmer Catalog #TGRCHK1S50K), with mixing on an orbital shaker at 500 rpm for 20 min at room temperature. Lysates were frozen at −20 OC overnight.
The pCHK1 ALPHASCREEN® signal was measured using an ENVISION® plate reader (PerkinElmer). IC50 values were calculated using a four-parameter logistic curve fit using Genedata Screener software. Percent of control for each compound concentration was calculated by the following formula: 100*(Compound−Min)/(Max−Min), where “Max” is the high control, DMSO, and “Min” is the low control, 5 μM ATR inhibitor.
(In general: Bead proximity is the source of the signal in Alpha formats.)

Chain of ATR/ATRIP complex (Q13535 whole entry): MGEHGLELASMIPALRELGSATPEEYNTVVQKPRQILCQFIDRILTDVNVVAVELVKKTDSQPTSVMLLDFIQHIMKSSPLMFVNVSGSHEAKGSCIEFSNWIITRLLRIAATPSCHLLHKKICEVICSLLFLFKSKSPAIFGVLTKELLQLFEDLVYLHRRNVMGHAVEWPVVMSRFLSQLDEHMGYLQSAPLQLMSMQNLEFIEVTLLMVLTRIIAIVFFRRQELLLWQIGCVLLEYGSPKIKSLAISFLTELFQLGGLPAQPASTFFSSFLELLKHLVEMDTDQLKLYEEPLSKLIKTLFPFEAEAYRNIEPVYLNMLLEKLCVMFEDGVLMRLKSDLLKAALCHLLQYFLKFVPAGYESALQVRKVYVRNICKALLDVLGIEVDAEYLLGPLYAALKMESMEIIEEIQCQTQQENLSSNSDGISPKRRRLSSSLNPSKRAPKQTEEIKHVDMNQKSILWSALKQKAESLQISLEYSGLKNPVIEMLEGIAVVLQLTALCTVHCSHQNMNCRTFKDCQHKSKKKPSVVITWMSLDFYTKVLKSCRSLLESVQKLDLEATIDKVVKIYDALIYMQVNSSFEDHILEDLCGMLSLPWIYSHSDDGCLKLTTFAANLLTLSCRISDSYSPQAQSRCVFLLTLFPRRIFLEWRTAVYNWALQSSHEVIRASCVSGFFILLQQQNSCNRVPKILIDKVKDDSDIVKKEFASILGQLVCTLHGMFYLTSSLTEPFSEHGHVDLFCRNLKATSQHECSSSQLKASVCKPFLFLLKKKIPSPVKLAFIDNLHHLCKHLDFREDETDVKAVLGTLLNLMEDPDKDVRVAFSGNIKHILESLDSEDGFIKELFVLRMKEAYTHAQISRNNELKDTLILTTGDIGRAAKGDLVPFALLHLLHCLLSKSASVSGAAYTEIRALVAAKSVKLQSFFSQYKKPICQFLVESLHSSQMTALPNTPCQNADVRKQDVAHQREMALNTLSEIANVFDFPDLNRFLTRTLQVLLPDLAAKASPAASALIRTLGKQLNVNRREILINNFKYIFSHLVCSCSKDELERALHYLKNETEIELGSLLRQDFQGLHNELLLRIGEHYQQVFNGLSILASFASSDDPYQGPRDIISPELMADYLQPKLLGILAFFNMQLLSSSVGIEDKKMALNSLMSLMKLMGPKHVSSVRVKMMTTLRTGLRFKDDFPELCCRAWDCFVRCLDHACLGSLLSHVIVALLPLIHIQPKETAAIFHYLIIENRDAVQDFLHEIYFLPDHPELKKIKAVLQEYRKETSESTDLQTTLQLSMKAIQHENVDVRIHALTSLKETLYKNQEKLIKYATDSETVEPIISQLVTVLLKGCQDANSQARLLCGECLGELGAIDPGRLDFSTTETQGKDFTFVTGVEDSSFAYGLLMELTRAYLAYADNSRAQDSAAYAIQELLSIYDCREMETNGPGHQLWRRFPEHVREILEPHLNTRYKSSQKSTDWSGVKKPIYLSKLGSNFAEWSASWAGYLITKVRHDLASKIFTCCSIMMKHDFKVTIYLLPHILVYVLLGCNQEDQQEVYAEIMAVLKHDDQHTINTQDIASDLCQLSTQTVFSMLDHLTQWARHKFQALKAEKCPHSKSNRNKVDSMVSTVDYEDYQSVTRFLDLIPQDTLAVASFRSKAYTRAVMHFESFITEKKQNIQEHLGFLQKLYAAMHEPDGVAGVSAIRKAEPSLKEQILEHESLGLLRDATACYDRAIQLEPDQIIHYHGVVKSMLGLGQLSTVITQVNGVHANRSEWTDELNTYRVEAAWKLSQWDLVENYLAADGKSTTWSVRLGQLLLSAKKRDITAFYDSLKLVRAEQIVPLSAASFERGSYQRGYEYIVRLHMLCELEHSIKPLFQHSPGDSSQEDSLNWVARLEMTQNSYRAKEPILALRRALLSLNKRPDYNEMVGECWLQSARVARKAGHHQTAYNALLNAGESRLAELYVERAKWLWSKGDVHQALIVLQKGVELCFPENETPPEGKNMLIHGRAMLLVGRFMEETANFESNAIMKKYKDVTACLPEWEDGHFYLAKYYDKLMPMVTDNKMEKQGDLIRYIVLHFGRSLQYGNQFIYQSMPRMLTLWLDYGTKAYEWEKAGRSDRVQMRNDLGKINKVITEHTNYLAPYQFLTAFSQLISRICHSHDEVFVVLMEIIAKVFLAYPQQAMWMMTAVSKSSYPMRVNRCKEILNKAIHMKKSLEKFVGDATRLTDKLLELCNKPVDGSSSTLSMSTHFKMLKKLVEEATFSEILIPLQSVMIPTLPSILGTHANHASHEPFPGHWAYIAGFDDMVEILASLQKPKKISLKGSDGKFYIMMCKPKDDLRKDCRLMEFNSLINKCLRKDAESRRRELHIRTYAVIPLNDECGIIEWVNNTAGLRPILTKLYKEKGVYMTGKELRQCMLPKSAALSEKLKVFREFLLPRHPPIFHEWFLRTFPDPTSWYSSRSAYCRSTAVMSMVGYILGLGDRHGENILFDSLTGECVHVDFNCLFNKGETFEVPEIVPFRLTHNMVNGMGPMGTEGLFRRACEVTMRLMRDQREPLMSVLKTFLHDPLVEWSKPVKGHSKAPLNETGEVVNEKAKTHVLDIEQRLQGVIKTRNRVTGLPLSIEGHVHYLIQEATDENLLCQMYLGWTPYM
Chain of ATR/ATRIP complex (Q8WXE1 whole entry partner): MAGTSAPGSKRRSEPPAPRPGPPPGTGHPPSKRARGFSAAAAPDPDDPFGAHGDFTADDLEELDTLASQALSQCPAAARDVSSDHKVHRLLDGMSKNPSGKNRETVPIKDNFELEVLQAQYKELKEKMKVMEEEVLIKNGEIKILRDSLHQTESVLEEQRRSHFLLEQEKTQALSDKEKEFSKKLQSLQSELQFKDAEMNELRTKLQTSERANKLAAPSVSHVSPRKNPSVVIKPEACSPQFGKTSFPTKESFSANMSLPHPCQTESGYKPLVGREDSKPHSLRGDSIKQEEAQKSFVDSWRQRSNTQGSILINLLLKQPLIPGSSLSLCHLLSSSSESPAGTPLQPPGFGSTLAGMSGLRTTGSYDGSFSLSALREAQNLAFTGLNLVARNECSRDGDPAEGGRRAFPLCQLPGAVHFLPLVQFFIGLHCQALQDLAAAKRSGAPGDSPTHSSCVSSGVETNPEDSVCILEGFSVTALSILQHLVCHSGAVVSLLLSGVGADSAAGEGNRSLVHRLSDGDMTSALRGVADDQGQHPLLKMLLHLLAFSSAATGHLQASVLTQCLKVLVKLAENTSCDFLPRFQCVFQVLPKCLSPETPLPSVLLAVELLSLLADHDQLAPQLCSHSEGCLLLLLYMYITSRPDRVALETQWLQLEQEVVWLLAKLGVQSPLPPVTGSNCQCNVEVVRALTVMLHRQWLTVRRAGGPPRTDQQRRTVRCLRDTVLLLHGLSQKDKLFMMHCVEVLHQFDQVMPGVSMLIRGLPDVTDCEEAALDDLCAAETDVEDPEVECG

For the molecule `C[C@@H]1COCCN1c1cc(N=S(C)(=O)C2COC2)nc(-c2cncc3[nH]ccc23)c1` (stereo partly drawn) [Example 24, methyl((4-((R)-3-methylmorpholino)-6-(1H-pyrrolo[2,3-c]pyridin-4-yl)pyridin-2-yl)imino)(oxetan-3-yl)-λ^6-sulfanone], the half-inhibitory concentration (IC50) – broadly, the point on the concentration scale where inhibition reaches its midpoint – in experiment [1] came to 24 nM; in experiment [2], 470 nM.

In the case of `C[C@@H]1COCCN1c1cc(N=S2(=O)CCC2)nc(-c2ccnc3[nH]ccc23)c1` [Example 25, (R)-1-((4-(3-methylmorpholino)-6-(1H-pyrrolo[2,3-b]pyridin-4-yl)pyridin-2-yl)imino)-1-λ^6-thietane 1-oxide], the IC50 turned out to be 9 nM in experiment [1] and 767 nM in experiment [2].

With `C[C@@H]1COCCN1c1cc(N=S2(=O)CCCC2)nc(-c2ccnc3[nH]ccc23)c1` [Example 26, (R)-1-((4-(3-methylmorpholino)-6-(1H-pyrrolo[2,3-b]pyridin-4-yl)pyridin-2-yl)imino)tetrahydro-1H-1-λ^6-thiophene 1-oxide], the figures for the IC50 in experiment [1] and in experiment [2] were 8 nM and 701 nM, respectively.

In the case of `C[C@@H]1COCCN1c1cc(N=S(C)(C)=O)nc(-c2cc(Cl)nc3[nH]ccc23)c1` [Example 27, (R)-((6-(6-chloro-1H-pyrrolo[2,3-b]pyridin-4-yl)-4-(3-methylmorpholino)pyridin-2-yl)imino)dimethyl-λ^6-sulfanone], the IC50 in experiment [1] is 30 nM; in experiment [2] it was 660 nM.

On to `Cc1nc2ccccc2n1-c1cc(N2CCOC[C@H]2C)cc(N=S(C)(C)=O)n1` [Example 28, (R)-dimethyl((6-(2-methyl-1H-benzo[d]imidazol-1-yl)-4-(3-methylmorpholino)pyridin-2-yl)imino)-λ^6-sulfanone], for which the 50% inhibitory concentration (IC50) is 24 nM in experiment [1] and 10000 nM in experiment [2].

`C[C@@H]1COCCN1c1cc(N=S(C)(C)=O)nc(-c2nccn2C)c1` [Example 31, (R)-dimethyl((6-(1-methyl-1H-imidazol-2-yl)-4-(3-methylmorpholino)pyridin-2-yl)imino)-λ^6-sulfanone]: the figures for the IC50 in experiment [1] and in experiment [2] were 3470 nM and 3060 nM, respectively.

Take `C[C@@H]1COCCN1c1cc(N=S(C)(C)=O)nc(-c2cc(F)cc3[nH]ccc23)c1` [Example 32, (R)-((6-(6-fluoro-1H-indol-4-yl)-4-(3-methylmorpholino)pyridin-2-yl)imino)dimethyl-λ^6-sulfanone]: the IC50 in experiment [1] was 4 nM; in experiment [2], 195 nM.

On to `C[C@@H]1COCCN1c1cc(N=S(C)(C)=O)nc(-c2ccnn2C)c1` [Example 33, (R)-dimethyl((6-(1-methyl-1H-pyrazol-5-yl)-4-(3-methylmorpholino)pyridin-2-yl)imino)-λ^6-sulfanone], for which the IC50 in experiment [1] came to 1850 nM; in experiment [2], 615 nM.

With `C[C@@H]1COCCN1c1cc(N=S(C)(C)=O)nc(-c2cnn(C)c2)c1` [Example 34, (R)-dimethyl((6-(1-methyl-1H-pyrazol-4-yl)-4-(3-methylmorpholino)pyridin-2-yl)imino)-λ^6-sulfanone], the IC50 turned out to be 3440 nM in experiment [1] and 10000 nM in experiment [2].

Consider `Cc1nccn1-c1cc(N2CCOC[C@H]2C)cc(N=S(C)(C)=O)n1` [Example 39, (R)-dimethyl((6-(2-methyl-1H-imidazol-1-yl)-4-(3-methylmorpholino)pyridin-2-yl)imino)-λ^6-sulfanone], for which the figures for the IC50 in experiment [1] and in experiment [2] were 3470 nM and 3060 nM, respectively.
